# Experimental data published in ChEMBL document CHEMBL5046281, “N-Aryl Mercaptopropionamides as Broad-Spectrum Inhibitors of Metallo-β-Lactamases” (J Med Chem, 2022).
# Calls of active or inactive are those of the source. The calls are words filed in the database; no cut-off is given here.
# Tests used:
# Escherichia coli [1] = experiment: Potentiation of imipenem-induced antibacterial activity against NDM-1 producing Escherichia coli assessed as fold change in imipenem MIC at 32 ug/ml by microdilution method; type: functional; details: dose 32 µg/ml
# [2] = Inhibition of Escherichia coli NDM-1 using fluorocillin as substrate incubated for 30 mins by fluorescence based assay
# [3] = molecular target: T1, Matrilysin (Homo sapiens) (UniProt P09237); experiment: Inhibition of human MMP-7 at 100 uM relative to control
# T1 sequence (whole entry): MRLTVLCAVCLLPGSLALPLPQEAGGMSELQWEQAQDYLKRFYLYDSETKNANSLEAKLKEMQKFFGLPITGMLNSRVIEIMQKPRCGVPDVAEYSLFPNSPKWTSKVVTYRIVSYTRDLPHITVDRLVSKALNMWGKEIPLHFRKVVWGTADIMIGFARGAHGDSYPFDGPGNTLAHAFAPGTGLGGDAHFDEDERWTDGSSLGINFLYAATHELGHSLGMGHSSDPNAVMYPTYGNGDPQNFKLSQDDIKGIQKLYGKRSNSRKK
# Acinetobacter baumannii = experiment: Potentiation of imipenem-induced antibacterial activity against OXA-23 producing Acinetobacter baumannii T2434 clinical isolates assessed as imipenem MIC at 128 mg/l by microdilution method; type: functional
# Escherichia coli [4] = experiment: Potentiation of imipenem-induced antibacterial activity against NDM-5 producing Escherichia coli T2351 clinical isolates assessed as imipenem MIC at 128 mg/l by microdilution method; type: functional
# [5] = Inhibition of Escherichia coli IMP-7 using fluorocillin as substrate incubated for 30 mins by fluorescence based assay
# Pseudomonas aeruginosa [6] = experiment: Inhibition of Pseudomonas aeruginosa quorum sensing system LasB at 100 uM
# [7] = (§1) Selectivity ratio of MIC for antibacterial activity against NDM-1 producing Serratia marcescens T2352 clinical isolates to MIC for potentiation of imipenem-induced antibacterial activity against NDM-1 producing Serratia marcescens T2352 clinical isolates assessed as imipenem MIC at 128 mg/l; type: functional
# [8] = molecular target: 72 kDa type IV collagenase (Homo sapiens, UniProt P08253); experiment: Inhibition of human MMP-2 at 100 uM relative to control
# Escherichia coli [9] = experiment: Potentiation of imipenem-induced antibacterial activity against NDM-1 producing Escherichia coli assessed as fold change in imipenem MIC at 2 ug/ml by microdilution method; type: functional; details: dose 2 µg/ml
# [10] = as §1, with “OXA-23” for “NDM-1”, “Acinetobacter baumannii T2434” for “Serratia marcescens T2352”; type: functional
# Escherichia coli [11] = experiment: Potentiation of imipenem-induced antibacterial activity against NDM-1 producing Escherichia coli assessed as fold change in imipenem MIC at 8 ug/ml by microdilution method; type: functional; details: dose 8 µg/ml
# Enterobacter cloacae [12] = experiment: Potentiation of imipenem-induced antibacterial activity against NDM-1 producing Enterobacter cloacae T2311 clinical isolates assessed as imipenem MIC at 128 mg/l by microdilution method; type: functional
# Escherichia coli [13] = experiment: Potentiation of imipenem-induced antibacterial activity against NDM-7 producing Escherichia coli T2239 clinical isolates assessed as imipenem MIC at 128 mg/l by microdilution method; type: functional
# [14] = Selectivity ratio of MIC for antibacterial activity against NDM-1 producing Enterobacter cloacae T2311 clinical isolates to MIC for potentiation of imipenem-induced antibacterial activity against NDM-1 producing Enterobacter cloacae T2311 clinical isolates assessed as imipenem MIC at 128 mg/l; type: functional
# Enterobacter cloacae [15] = experiment: Potentiation of imipenem-induced antibacterial activity against VIM-1 producing Enterobacter cloacae T2353 clinical isolates assessed as imipenem MIC at 128 mg/l by microdilution method; type: functional
# Escherichia coli [16] = experiment: Potentiation of imipenem-induced antibacterial activity against NDM-1 producing Escherichia coli assessed as imipenem MIC at 4 ug/ml by microdilution method (reference value: 128 ug/ml); type: functional; details: dose 4 µg/ml
# [17] = Selectivity ratio of MIC for antibacterial activity against KPC-2 producing Escherichia coli T2435 clinical isolates to MIC for potentiation of imipenem-induced antibacterial activity against KPC-2 producing Escherichia coli T2435 clinical isolates assessed as imipenem MIC at 128 mg/l; type: functional
# Escherichia coli [18] = experiment: Potentiation of imipenem-induced antibacterial activity against NDM-1 producing Escherichia coli assessed as imipenem MIC at 128 ug/ml by microdilution method (reference value: 128 ug/ml); type: functional; details: dose 128 µg/ml
# Klebsiella pneumoniae = experiment: Antibacterial activity against imipenem-resistant NDM-1-producing Klebsiella pneumoniae T2301 infected in Galleria mellonella larvae assessed as survival rate at 38.4 ug injected via proleg measured after 3 days in presence of imipenem by Kaplan-Meier method; type: functional; details: dose 38.4 µg; time 3 day
# Escherichia coli [19] = experiment: Antibacterial activity against IMP-1 expressing Escherichia coli isolates assessed as inhibition of bacterial growth by microdilution method; type: functional, organism-based
# Pseudomonas aeruginosa [20] = experiment: Potentiation of imipenem-induced antibacterial activity against VIM-1 producing Pseudomonas aeruginosa T2357 clinical isolates assessed as imipenem MIC at 128 mg/l by microdilution method; type: functional
# Enterobacter cloacae [21] = experiment: Potentiation of imipenem-induced antibacterial activity against GIM-1 producing Enterobacter cloacae T2218 clinical isolates assessed as imipenem MIC at 128 mg/l by microdilution method; type: functional
# Escherichia coli [22] = experiment: Potentiation of imipenem-induced antibacterial activity against NDM-1 producing Escherichia coli assessed as imipenem MIC at 8 ug/ml by microdilution method (reference value: 128 ug/ml); type: functional; details: dose 8 µg/ml
# [23] = molecular target: Stromelysin-1 (Homo sapiens) (UniProt P08254); experiment: Inhibition of human MMP-3 at 100 uM relative to control
# [24] = Selectivity ratio of MIC for antibacterial activity against VIM-1 producing Enterobacter cloacae T2353 clinical isolates to MIC for potentiation of imipenem-induced antibacterial activity against VIM-1 producing Enterobacter cloacae T2353 clinical isolates assessed as imipenem MIC at 128 mg/l; type: functional
# [25] = Selectivity ratio of MIC for antibacterial activity against NDM-5 producing Escherichia coli T2351 clinical isolates to MIC for potentiation of imipenem-induced antibacterial activity against NDM-5 producing Escherichia coli T2351 clinical isolates assessed as imipenem MIC at 128 mg/l; type: functional
# HEK293 = experiment: Cytotoxicity against human HEK293 cells assessed as reduction in cell viability at 100 uM relative to control; type: toxicity, cell-based; details: hek293, 100 µM
# Chain of 72 kDa type IV collagenase (P08253 110-660 limits assumed): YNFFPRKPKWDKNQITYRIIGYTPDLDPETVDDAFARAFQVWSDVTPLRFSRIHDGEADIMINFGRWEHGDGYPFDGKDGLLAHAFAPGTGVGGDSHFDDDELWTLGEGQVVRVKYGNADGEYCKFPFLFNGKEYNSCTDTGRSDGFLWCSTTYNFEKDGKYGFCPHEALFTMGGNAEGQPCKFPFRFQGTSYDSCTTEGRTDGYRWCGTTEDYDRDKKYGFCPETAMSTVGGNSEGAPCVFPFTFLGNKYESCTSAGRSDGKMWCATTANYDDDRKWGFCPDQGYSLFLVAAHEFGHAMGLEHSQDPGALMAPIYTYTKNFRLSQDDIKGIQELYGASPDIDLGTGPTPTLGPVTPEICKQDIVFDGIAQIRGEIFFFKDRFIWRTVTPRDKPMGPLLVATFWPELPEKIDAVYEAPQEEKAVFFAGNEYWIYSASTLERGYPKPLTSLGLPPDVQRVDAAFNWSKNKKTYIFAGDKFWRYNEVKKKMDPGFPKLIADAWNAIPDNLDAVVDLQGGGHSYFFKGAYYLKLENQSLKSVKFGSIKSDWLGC
# Chain of Stromelysin-1 (Homo sapiens) (P08254 100-477 limits assumed): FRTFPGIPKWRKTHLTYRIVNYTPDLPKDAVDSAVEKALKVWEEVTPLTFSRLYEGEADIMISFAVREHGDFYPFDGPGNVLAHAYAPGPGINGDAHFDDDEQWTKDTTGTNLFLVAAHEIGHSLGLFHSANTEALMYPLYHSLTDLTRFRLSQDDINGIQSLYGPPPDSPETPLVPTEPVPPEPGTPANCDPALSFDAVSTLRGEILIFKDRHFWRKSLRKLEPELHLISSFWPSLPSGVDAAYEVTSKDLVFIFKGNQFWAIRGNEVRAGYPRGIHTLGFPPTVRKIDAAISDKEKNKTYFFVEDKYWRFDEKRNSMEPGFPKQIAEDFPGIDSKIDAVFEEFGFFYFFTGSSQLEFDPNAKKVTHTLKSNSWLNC
smiles,measurement,setting,value
O=C(CCS)Nc1cccc(C(=O)O)c1,fold change (FC),Escherichia coli [1],16
same,IC50,[2],4 µM
same,inhibition,[3],< 10%
same,MIC,Acinetobacter baumannii,32 µg/mL
same,MIC,Escherichia coli [4],2 µg/mL
same,IC50,[5],6.4 µM
same,inhibition,Pseudomonas aeruginosa [6],Active
same,Ratio,[7],64
same,inhibition,[8],< 10%
same,fold change (FC),Escherichia coli [9],1
same,Ratio,[10],1
same,fold change (FC),Escherichia coli [11],2
same,MIC,Enterobacter cloacae [12],1 µg/mL
same,MIC,Escherichia coli [13],2 µg/mL
same,Ratio,[14],8
same,MIC,Enterobacter cloacae [15],2 µg/mL
same,MIC,Escherichia coli [16],128 µg/mL
same,Ratio,[17],1
same,MIC,Escherichia coli [18],≤ 0.5 µg/mL
same,Activity,Klebsiella pneumoniae,<=56%
same,Activity,Escherichia coli [19],inactive
same,MIC,Pseudomonas aeruginosa [20],256 µg/mL
same,MIC,Enterobacter cloacae [21],2 µg/mL
same,MIC,Escherichia coli [22],64 µg/mL
same,inhibition,[23],< 10%
same,Ratio,[24],2
same,Ratio,[25],4
same,Activity,HEK293,< 10%
